Where only a bound is given, the exact number is not on record here.

From patent US20220348572A1, “BRIDGED HETEROCYCLYL-SUBSTITUTED PYRIMIDINE COMPOUND, PREPARATION METHOD THEREFOR, AND PHARMACEUTICAL USE THEREOF” (The National Institutes of Pharmaceutical R&D Co., Ltd., priority 2019, published 2022) come the findings set out here.

One data set addresses T1, JAK1 kinase (Homo sapiens, UniProt P23458).
T1 construct: purchased Invitrogen PV4744
The data set is described as follows: In vitro inhibitory activity on JAK1 kinase (ADP-Glo Kinase Assay). Format: biochemical. As to conditions: JAK1 kinase 4 nM, 1 mM ATP. In a few lines:
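JAK1 (4 nM final) preincubated with compound 15 min at 25° C., then substrate mix (1 mM ATP, IRS1 0.05 mg/ml) added for 60 min at 25° C. ADP-Glo luminescence read-out; top concentration 10 μM, 3-fold, 10 points, duplicates; IC50 reported in ranged classes.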
(In general: ADP-Glo first removes unused ATP, then detects ADP through luciferase.)

Data set [1] deals with IFN-2α-stimulated TYK2/JAK1-mediated pathway (pSTAT3). The data set is described as follows: Inhibition of STAT3 signaling pathway of human whole blood (IFN-2α-induced pSTAT3, flow cytometry). Format: cell-based. Here is the method:
Test Example 3: Inhibition Effect of the Compounds of the Present Invention on STAT3 Signaling Pathway of Human Whole Blood
Sample preparation: The compounds of the present invention and the control were dissolved in DMSO solvent respectively to formulate into 10 mM initial liquid. The maximum concentration of the compound was 10 μM, 3-fold dilution, 10 concentration gradients, and duplicate wells for each concentration gradient.
Experimental process: 20 μL of the compound of the present invention was added to a flow cytometer tube (BD, 352052) containing 180 μL anticoagulant sodium heparin. 20 μL PBS was added to the control. The sample was incubated at 37° C. for 30 min. 2 μL stimulating factor was added and then incubated at 37° C. for 20 min. 1 mL erythrocyte lysate was rapidly added, and the sample was repeatedly inverted 5-10 times or vortexed and then incubated at 37° C. for 10 min. The sample was centrifuged at 600 g for 6-8 min. The supernatant was discarded. The precipitate was vortexed until suspending. The cells were washed with 3 mL PBS and centrifuged at 600 g for 6-8 min. The supernatant was discarded. The precipitate was vortexed until suspending. 1 mL of membrane breaking solution was added, and the system was mixed gently, incubated on ice for 30 min, and centrifuged at 600 g for 6-8 min. The supernatant was discarded. The precipitate was vortexed until suspending. The cells were washed. 3 mL PBS was added. The system was centrifuged at 600 g for 6-8 min. The supernatant was discarded. The precipitate was vortexed untile suspending. The process was repeated twice. 100 μL PBS was added to each staining tube. IFN-2a was added for stimulation, and CD3 and pSTAT3 antibodies […] were added. The system was mixed well, protected from light and incubated at room temperature for 60 min. The cells were washed. 3 mL PBS was added. The system was centrifuged at 600 g for 6-8 min. The supernatant was discarded. The precipitate was vortexed until suspending. The precipitate was suspended in 150 μL in the dark for the flow cytometry analysis. The IC50 (half inhibitory concentration) of the compounds was obtained by using the following non-linear fitting equation:
Y=Bottom+(Top−Bottom)/(1+10^((Log IC50−X)*HillSlope));
X: Log value of the concentration of the compound;
Bottom: The minimum value, Top: The maximum value, HillSlope: Slope
The inhibition effect of by the compounds of the present invention on the IFN-2α-stimulated TYK2/JAK1-mediated pathway is shown in Table 3. IC50 value of 0-100 nM is shown as A, IC50 value of 100-300 nM is shown as B, IC50 value of 300-1000 nM is shown as C, IC50 value which is greater than 1000 nM is shown as D. NT means not tested.

In another data set the target is T2, TYK2 kinase (Homo sapiens, UniProt P29597).
T2 sequence (P29597 897-1187 limits assumed): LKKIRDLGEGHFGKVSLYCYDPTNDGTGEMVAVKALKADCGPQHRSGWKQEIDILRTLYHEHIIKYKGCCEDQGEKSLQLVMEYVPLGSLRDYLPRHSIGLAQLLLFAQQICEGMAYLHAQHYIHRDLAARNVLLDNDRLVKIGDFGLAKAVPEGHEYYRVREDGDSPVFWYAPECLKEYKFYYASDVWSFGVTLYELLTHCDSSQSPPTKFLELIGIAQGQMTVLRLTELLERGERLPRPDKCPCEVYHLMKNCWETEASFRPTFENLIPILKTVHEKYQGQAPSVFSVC
The data set is described as follows: In vitro inhibitory activity on Tyk2 kinase (ADP-Glo Kinase Assay). Format: biochemical. As to conditions: TYK2 kinase 4 nM, 1 mM ATP. The procedure: Test Example 2: Determination of In Vitro Inhibitory Activity of the Compounds of the Present Invention on Tyk2 Kinase Experimental materials: TYK2 (Invitrogen, PV4790), ATP (Promega, V915B), ADP-Glo Kinase Assay (Promega, V9101), IRS1 (Signalchem, 140-58-1000). Sample preparation: The compounds of the present invention and the control product were dissolved in DMSO solvent respectively to formulate into 10 mM initial liquid. The maximum concentration of the compound was 10 μM, 3-fold dilution, 10 concentration gradients, and duplicate wells for each concentration gradient. Experimental process: 0.1 μL of the compound to be tested was transferred into a 384 reaction plate (PE, 6007290) via Echo and centrifuged at 1000 rpm/min for 1 min. 5 μL TYK2 kinase (final concentration of 4 nM) was transferred into the 384 reaction plate, which was then centrifuged at 1000 rpm/min for 1 min, and incubated at 25° C. for 15 min. 5 μL substrate mixture (1 mM ATP, IRS1 0.05 mg/ml, kinase buffer solution) was transferred into the 384 reaction plate, which was then centrifuged at 1000 rpm/min for 1 min, and incubated at 25° C. for 60 min. 10 μL ADP-Glo was transferred into the 384 reaction plate, which was then centrifuged at 1000 rpm/min for 1 min, and incubated at 25° C. for 40 min. 20 μL test solution was transferred into the 384 reaction plate, which was centrifuged at 1000 rpm/min for 1 min and incubated at 25° C. for 40 min. RLU (Relative luminescence unit) signal was read by using an Envision multifunctional plate reader. The signal intensity was used to characterize the degree of the kinase activity. […] IC50 value of 0-100 nM is shown as A, IC50 value of 100-300 nM is shown as B, IC50 value of 300-1000 nM is shown as C, and IC50 value which is greater than 1000 nM is shown as D. NT means not tested.

Data set [2] in a line: Pharmacokinetic study in rats after oral administration. Format: in vivo, SD rats. Here is the method: Experimental Example 5: Pharmacokinetic Studies of the Compounds of Example 1, Example 1-a, Example 1-b and Example 3 in Rats In order to investigate the blood concentration and pharmacokinetic parameters of the compounds of the present invention after oral administration, the corresponding LC/MS/MS assay and plasma treatment methods were developed for the compounds of the Experimental Examples. […] Male SD rats were orally administered at a dose of 5 mg/kg. Blood was orbitally collected and anticoagulated with sodium heparin. The plasma was deproteinated with acetonitrile. The samples were analyzed by LC/MS/MS method. Wherein, AUC<1000 μg/L*h is shown as C, AUC between 1000-2000 μg/L*h is shown as B, AUC>2000 μg/L*h is shown as A; Cmax<600 μg/L is shown as C, Cmax between 600-900 μg/L is shown as B, and Cmax>900 μg/L is shown as A.

Setting [3] is: rat, male SD rats, oral 5 mg/kg, plasma.

T1 sequence (P23458 866-1154 limits assumed): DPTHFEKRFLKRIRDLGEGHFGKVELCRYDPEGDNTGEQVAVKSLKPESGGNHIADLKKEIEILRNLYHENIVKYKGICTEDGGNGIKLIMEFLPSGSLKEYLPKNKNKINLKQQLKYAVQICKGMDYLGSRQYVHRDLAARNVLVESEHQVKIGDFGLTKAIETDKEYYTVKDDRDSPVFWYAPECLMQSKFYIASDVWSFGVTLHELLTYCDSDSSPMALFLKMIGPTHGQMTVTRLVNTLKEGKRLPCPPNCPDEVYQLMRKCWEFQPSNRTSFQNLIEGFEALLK

Take `Cn1cc(Nc2nccc(C3=CC4CCC(C3)N4C(=O)C3CC3F)n2)cn1` (stereo not shown) [Compound 51, (2-fluorocyclopropyl)(3-(2-((1-methyl-1H-pyrazol-4-yl)amino)pyrimidin-4-yl)-8-azabicyclo[3.2.1]oct-2-en-8-yl)methanone]: the IC50 (against JAK1 kinase; in data set [1]) was under 100 nM in each case.

For the molecule `Cn1cc(Nc2nccc(C3=CC4CCC(C3)N4C(=O)NC3(C#N)CC3)n2)cn1` (stereo not shown) [Compound 54, N-(1-cyanocyclopropyl)-3-(2-((1-methyl-1H-pyrazol-4-yl)amino)pyrimidin-4-yl)-8-azabicyclo[3.2.1]oct-2-ene-8-carboxamide], the figures for the IC50 (on JAK1 kinase; in data set [1]) were over 1000 nM and under 100 nM, respectively.

`Cn1cc(Nc2nccc(C3=C[C@@H]4CC[C@H](C3)N4C(=O)[C@@H]3CC3(F)F)n2)cn1` (single isomer, unassigned) [Compound 1-a]: the IC50 (against JAK1 kinase; on TYK2 kinase; in data set [1]) was under 100 nM in each case. Further, the “pharmacokinetic parameters (in words)” value in data set [2] (oral administration in SD rats) is “good pharmacokinetic parameters”. This molecule returned an AUC(0-t) in data set [2] (setting [3]) of 1000 to 2000 ng·h/mL. In data set [2] (setting [3]), the highest concentration (Cmax) was in the range of 600 to 900 ng/mL.

The term IC50 denotes the concentration needed to halve the response being measured. Lower therefore signals greater potency. In general, AUC(0-t) refers to the area under the concentration-time curve up to a stated or last time point. Read a low AUC(0-t) as low exposure. The term Cmax denotes the highest concentration seen after dosing.
